Measurements as given in PubChem BioAssay AID463074 (Broad Institute, 2010).
The source made the active and inactive calls.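 Rule for the calls: active = AC50 no more than tenfold above the top dose tested, or full inhibition at every dose with a flat fit (cut at about 19 µM in these data); inconclusive = flat curve fit with inhibition between 30% and 70%, or poor fit; inactive = AC50 more than tenfold above the top dose tested.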 Residues, ends and D or L forms follow the SMILES beside them. *: point of attachment. Boc = CC(C)(C)OC(=O)*; Bn = c1ccc(C*)cc1

Test system: HMLE_sh_eGFP viability, CellTiter-Glo luminescence, 72 h
Test: viability loss of HMLE_sh_eGFP cells – cell-based, luminescence, counter-screen for HMLE_sh_ECad selective toxicity project, dose response (AID 463074);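 note: counterscreen control line to flag general toxicity for the HMLE_sh_ECad screen; potency for loss of viability as luminescence drops below DMSO wells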

Structure (SMILES): O=C1[C@@H]2Cc3c([nH]c4ccccc34)C(c3cccc(Br)c3)N2C(=O)CN1C1CCN(Cc2ccccc2)CC1 (some centres undefined)
- AC50: 7.12 µM

Structure (SMILES): CCc1ccc(S(=O)(=O)Nc2ccc(O)c3ccccc23)cc1
- AC50: 14.7 µM

Structure (SMILES): CCN(CC)S(=O)(=O)c1ccc(NC(=O)Nc2cccc(C(F)(F)F)c2)cc1
- AC50: 3.54 µM

Structure (SMILES): COc1cccc(C(=O)Nc2ccc(C3CC3(Cl)Cl)cc2)c1 (centres undefined)
- AC50: 16.4 µM

Structure (SMILES): CC1(C)C[C@H](O)[C@]2(CO)[C@H](O)C[C@]3(C)C(=CCC4[C@@]5(C)CC[C@H](O)C(C)(C)C5CC[C@]43C)[C@@H]2C1 (some centres undefined)
- AC50: 3.63 µM

Structure (SMILES): O=C1C2C(c3ccccc3)CC=CC2[C@H](c2ccc(C(F)(F)F)cc2)N1Cc1ccccc1 (some centres undefined)
- AC50: 5.89 µM

Structure (SMILES): CN(CC(=O)Nc1cccc(F)c1)C(=O)c1cn(-c2ccccc2)nc1-c1ccc(Cl)cc1
- AC50: 3.85 µM

Structure (SMILES): COc1ccc(/C=C/C(=O)c2c(O)n(CCC3=CCCCC3)c(=O)[nH]c2=O)cc1
- AC50: 3.33 µM

Structure (SMILES): CN1/C(=C\C(=O)Nc2ccc(Br)cc2)C(C)(C)c2ccccc21
- AC50: 7.32 µM

Structure (SMILES): C=C(C(=O)c1ccccc1)C(C)C(=C)C(=O)c1ccccc1
- AC50: 1.85 µM

Structure (SMILES): Cc1cc(C(=O)Nc2nc3c(s2)CCCC3)cs1
- AC50: > 19.5 µM (inactive)

Structure (SMILES): C[C@]12CCC(O)CC1CCC1C2CC[C@]2(C)C(c3cc(C(F)(F)F)n[nH]3)CCC12 (some centres undefined)
- AC50: 1.78 µM

Structure (SMILES): COc1cc(SC#N)ccc1N=Cc1c(C)[nH]n(-c2ccc(C)cc2)c1=O
- AC50: 5.99 µM

Structure (SMILES): Cc1c(CCOC(=O)CC23CC4CC(CC(C4)C2)C3)sc[n+]1CC(=O)c1ccc(Br)cc1
- AC50: 2.6 µM

Structure (SMILES): O=C(Nc1cc(N2CCOCC2)ncn1)NC1(C(F)(F)F)Oc2ccc(Cl)cc2O1 (centres undefined)
- AC50: 14.7 µM

Structure (SMILES): C/C(N)=C(/C#N)C(=O)COC(=O)c1cc(-c2ccc(C)cc2)nc2ccccc12
- AC50: 15 µM

Structure (SMILES): CC(C)(C)OC(=O)[C@H](Cc1ccccc1)NC(=O)c1[nH]cnc1C(=O)Nc1ccc(Cl)cc1
- AC50: 3.92 µM

Structure (SMILES): COc1cc(OC)cc(-c2cc3ccc(OC)cc3cn2)c1
- AC50: 5.43 µM

Structure (SMILES): C[C@H](CO)N1C[C@H](C)[C@@H](CN(C)S(=O)(=O)c2ccccc2)Oc2ccc(NC(=O)Nc3ccc(C(F)(F)F)cc3)cc2C1=O
- AC50: 12.9 µM

Structure (SMILES): Nc1ccc(N=Nc2ccccc2)c2ccccc12
- AC50: 12.6 µM

Structure (SMILES): Cc1ccc(NC(=S)Nc2cccc3cnccc23)cc1C
- AC50: > 19.5 µM (inactive)

Structure (SMILES): COc1ccc(/C=N/NC(=S)Nc2ccccc2[N+](=O)[O-])cc1O
- AC50: 5.87 µM

Structure (SMILES): CC/C(=N/NC(=O)c1ccccc1O)c1c(C)[nH]n(-c2ccccc2)c1=O
- AC50: 5.25 µM

Structure (SMILES): C=C(C)C1Cc2c(C)nn(-c3cccc4ccccc34)c2C1 (centres undefined)
- AC50: 7.55 µM

Structure (SMILES): O=C(Nc1ccc(O)cc1)c1ccc(NC(=O)c2cccs2)cc1
- AC50: 10 µM

Structure (SMILES): O=c1c2ccccc2nc2n1C1(CCCCC1)Cc1ccccc1-2
- AC50: 4.03 µM

Structure (SMILES): COc1ccc(/C=C/C(=O)c2ccc([N+](=O)[O-])o2)cc1
- AC50: 2.87 µM

Structure (SMILES): CC(C)Oc1ccc(C(=O)/C=C2/C(=O)Nc3ccccc32)cc1
- AC50: 6.4 µM

Structure (SMILES): Cc1nn(-c2ccccc2)c(C)c1/C=N/NC(=O)c1cc(-c2ccc(Br)s2)[nH]n1
- AC50: 4.72 µM

Structure (SMILES): Cc1cc(Nc2cccc(F)c2)nc(-c2ccccc2O)n1
- AC50: 6.41 µM

Structure (SMILES): CC(C)=CCOc1ccc([C@@H]2COc3c(ccc4c3C=CC(C)(C)O4)C2)c(O)c1
- AC50: 3.04 µM

Structure (SMILES): c1ccc(-c2sc3ccccc3c2-c2ccc(OCCN3CCOCC3)cc2)cc1
- AC50: 3.24 µM

Structure (SMILES): C=CCCC(=O)Nc1nc(C)c(-c2csc(Nc3ccc(Cl)cc3)n2)s1
- AC50: 3.83 µM

Structure (SMILES): Cc1cc(O)c(C(C)C)cc1C1(c2cc(C(C)C)c(O)cc2C)OC(=O)c2ccccc21
- AC50: 3.23 µM

Structure (SMILES): CCC1=Nc2cc(C(=O)NCc3cccnc3)ccc2Sc2ccc(C)cc21
- AC50: 0.816 µM

Structure (SMILES): CCN1C(=O)C(CC(=O)Nc2ccc(F)cc2)N(CCCN2CCN(c3ccc(F)cc3)CC2)C1=S (centres undefined)
- AC50: 6.83 µM

Structure (SMILES): O=c1c(Cl)c(NCc2ccccc2Cl)cnn1C12CC3CC(CC(C3)C1)C2
- AC50: 2.43 µM

Structure (SMILES): O=C(Nc1ccc(-c2csc(Nc3ccc(Cl)cc3)n2)cc1)c1cc([N+](=O)[O-])cc(C(F)(F)F)c1
- AC50: 3.08 µM

Structure (SMILES): CC(C)(C)c1ccc(Cn2nnc3c(=O)[nH]c(C4CCCN(C(=O)c5cccs5)C4)nc32)cc1 (centres undefined)
- AC50: 14.6 µM

Structure (SMILES): Cc1cc(C)c(OCCCCN2CCNCC2)c(C)c1
- AC50: 16 µM

Structure (SMILES): CCCCCCSc1nsc(NC(=O)CC(C)C)n1
- AC50: 9.2 µM

Structure (SMILES): CCN1CCN(Cc2ccc(OCc3ccccc3)cc2)CC1
- AC50: 4.38 µM

Structure (SMILES): CC(C)[C@@H]1CC[C@@H](C)c2c(-c3ccccc3)n[nH]c21
- AC50: 6.38 µM

Structure (SMILES): COc1ccc(/C=N/N(c2ccccc2)c2ccccc2)cc1O
- AC50: 7.09 µM

Structure (SMILES): CN(Cc1ccco1)c1ncnc2ccc(-c3ccc4c(ccn4C)c3)cc12
- AC50: 3.01 µM

Structure (SMILES): C=CCC[C@H](Cc1ccc(F)cc1)C(=O)OC[C@@H](Cc1c[nH]c2ccccc12)NC(=O)[C@@H](CC=C)CC(=O)N(CCO)Cc1ccccc1
- AC50: 4.34 µM

Structure (SMILES): Cc1c(C2(O)CCCCC2)[nH]c2cc(C(F)(F)F)ccc12
- AC50: 5.83 µM

Structure (SMILES): O=C(/C(=C/c1cccc(Cl)c1)c1nc2ccccc2[nH]1)c1ccccc1
- AC50: 3.35 µM

Structure (SMILES): COc1cc(CNc2ccc(CNc3ncn[nH]3)cc2)ccc1OCc1ccccc1
- AC50: 0.708 µM

Structure (SMILES): CCc1c(C2(O)CCCCC2)[nH]c2cc(C(F)(F)F)ccc12
- AC50: 3.15 µM

Structure (SMILES): O=C(CN(c1cccc(C(F)(F)F)c1)S(=O)(=O)c1ccc(Cl)c([N+](=O)[O-])c1)NCc1ccc(F)cc1
- AC50: 3.26 µM

Structure (SMILES): Cc1ccc(CCC(=O)Nc2ncc(Cc3cc(Cl)ccc3Cl)s2)o1
- AC50: 13.6 µM

Structure (SMILES): COc1ccc(NS(=O)(=O)c2cc(NC(=O)c3ccc(=O)[nH]c3)ccc2N2CCCC2)cc1
- AC50: 1.1 µM

Structure (SMILES): CCCCCc1cc(=O)oc2c(C(CCN3CCCC(C)C3)c3ccc(OC)cc3)c(OC)cc(OC)c12 (centres undefined)
- AC50: 5.33 µM

Structure (SMILES): CC(C)CCNc1nc(-c2ccco2)c2c(c1C#N)CCCC2
- AC50: 11.3 µM

Structure (SMILES): Cc1ccc(/C=C/C(=O)NCCc2ccccc2)o1
- AC50: > 19.5 µM (inactive)

Structure (SMILES): Cc1nnc(-c2ccc(Oc3ccc(Cl)cc3)c([N+](=O)[O-])c2)o1
- AC50: 0.33 µM

Structure (SMILES): COc1ccc(-c2sc3ccccc3c2-c2ccc(OCCN(C)C)cc2)cc1
- AC50: 3.38 µM

Structure (SMILES): CCN1CCN(C(=S)Nc2sc(C)c(-c3ccccc3)c2C(=O)OC)CC1
- AC50: 4.72 µM

Structure (SMILES): Fc1ccccc1COc1ccc(-c2nnn(Cc3ccccc3F)n2)cc1
- AC50: 4.81 µM

Structure (SMILES): Cc1ccc2nc(-c3cccc(NS(C)(=O)=O)c3)cc(-c3ccccc3)c2c1
- AC50: 5.53 µM

Structure (SMILES): CCCC(=O)NC(c1ccc2c(c1)OCO2)c1cc(Cl)c2cccnc2c1O (centres undefined)
- AC50: 3.1 µM

Structure (SMILES): O=C(NC(=S)Nc1cccc(Cl)c1N1CCCCC1)c1ccco1
- AC50: 3.81 µM

Structure (SMILES): O=c1c2ccccc2nc(/C=C/c2ccccc2)n1-c1ccccc1O
- AC50: 10.7 µM

Structure (SMILES): CC(C)CC(NC(=O)C(NC(=O)C(Cc1ccc(OCc2ccccc2)cc1)NC(=O)OC(C)(C)C)C(C)C)C(N)=O (stereo not drawn) (Boc-Tyr(Bn)-Val-Leu-NH2; configuration not given here)
- AC50: > 19.5 µM (inactive)

Structure (SMILES): Cc1sc(-n2c(C)cc(/C=C3\SC(=S)NC3=O)c2C)c(C#N)c1C
- AC50: 4.72 µM

Structure (SMILES): CCCCNC(=S)N(C)/N=C/c1ccc2c(c1)OCO2
- AC50: 16.3 µM

Structure (SMILES): COc1cc(C2NCC(c3ccc(Cl)cc3Cl)c3c2[nH]c2ccccc32)cc(OC)c1OC (centres undefined)
- AC50: 18.7 µM

Structure (SMILES): COc1cc(Br)cc(/C=C/c2ccc3cccc(O)c3n2)c1O
- AC50: 3.91 µM

Structure (SMILES): CCNC(=S)N/N=C/c1cn(Cc2ccc(F)cc2)c2ccccc12
- AC50: 10.9 µM

Structure (SMILES): Cc1occc1C(=O)Nc1ccc(OCc2ccccc2)cc1
- AC50: 6.25 µM

Structure (SMILES): COc1ccc(-c2sc3ccc(OC)cc3c2C#Cc2ccccn2)cc1
- AC50: 5.88 µM

Structure (SMILES): C=C(C)COc1ccc(-c2nc(N)ncc2-c2ccc(Cl)cc2)c(O)c1
- AC50: 4 µM

Structure (SMILES): CCC(=O)NC(=S)Nc1cccc(Cl)c1N1CCCCC1
- AC50: 9.96 µM
